Values of other authors, collected in patent publication EP2143418A1, “Antiperspirant compositions” (Unilever PLC, priority 2008, dated 2010).

Test system: Staphylococcus epidermidis
Settings: 80% or greater reduction in growth of inoculum, 16 to 24 hours at 37°C

| MIC | Compound |
| --- | --- |
| greater than 1 mg.ml^-1 | CCO [ethanol] |
| ca. 25 µg.ml^-1 | CC(C)=CCCC(C)=CCCC(C)=CCO [farnesol, 3,7,11-trimethyldodeca-2,6,10-trienol] |

| Compound | MIC |
| --- | --- |
| Oc1cc(Cl)ccc1Oc1ccc(Cl)cc1Cl [triclosan, 2',4,4'-trichloro,2-hydroxy-diphenyl ether] | 0.01 to 10 µg/mL |
